Experimental data reported in ChEMBL document CHEMBL3046925, “,-Dibromoacetophenones mediated synthesis of some new 7H-7-alkoxy-3-alkyl/phenyl-6-aryl-s-triazolo[3,4-b][1,3,4]thiadiazines and their antimicrobial evaluation” (2012).
Values after ≈ are worked out from the molar mass of the structure shown. Active and inactive are the calls of the source. The calls are words filed in the database; no cut-off is given here.

Columns and labels:
Staphylococcus aureus [1] = assay: Antimicrobial activity against Staphylococcus aureus MTCC 96 after 24 hr by two-fold serial dilution method; type: functional; conditions: MTCC 96, 24 h
Bacillus subtilis [2] = assay: microbe, parasite or virus in culture; type: functional; conditions: MTCC 121, 24 h
Description: (§1) Antimicrobial activity against Bacillus subtilis MTCC 121 at 2 mg/ml after 24 hr by two-fold serial dilution method

Candida albicans [3] = assay: Antimicrobial activity against Candida albicans MTCC 227 at 2 mg/ml by agar well diffusion method; type: functional; conditions: for zone of inhibition at 2000 µg/mL: read-out: DIZ
Saccharomyces cerevisiae [4] = assay: Antimicrobial activity against Saccharomyces cerevisiae MTCC 170 after 24 hr by two-fold serial dilution method; type: functional
Pseudomonas aeruginosa = assay: Antimicrobial activity against Pseudomonas aeruginosa MTCC 741 at 2 mg/ml after 24 hr by agar well diffusion method; type: functional, organism-based
Escherichia coli = assay: Antimicrobial activity against Escherichia coli MTCC 1652 at 2 mg/ml after 24 hr by agar well diffusion method; type: functional, organism-based
Saccharomyces cerevisiae [5] = assay: Antimicrobial activity against Saccharomyces cerevisiae MTCC 170 at 2 mg/ml after 24 hr by agar well diffusion method; type: functional; conditions: for zone of inhibition at 2000 µg/mL: MTCC 170, 24 h, read-out: DIZ
Candida albicans [6] = assay: Antimicrobial activity against Candida albicans MTCC 227 at 2 mg/ml by two-fold serial dilution method; type: functional
Bacillus subtilis [7] = assay: microbe, parasite or virus in culture; type: functional; conditions: MTCC 121, 24 h, read-out: DIZ
Description: (§2) Antimicrobial activity against Bacillus subtilis MTCC 121 at 2 mg/ml after 24 hr by agar well diffusion method

Staphylococcus aureus [8] = assay: Antimicrobial activity against Staphylococcus aureus MTCC 96 at 2 mg/ml after 24 hr by agar well diffusion method; type: functional; conditions: MTCC 96, 24 h, read-out: DIZ
Staphylococcus aureus [9] = conditions: MTCC 96
Bacillus subtilis [10] = conditions: MTCC 121
Description: as §1

Staphylococcus aureus [11] = conditions: MTCC 96; remark: listed apart in the source
Bacillus subtilis [12] = conditions: MTCC 121; remark: listed apart in the source
Description: as §2

SMILES	MIC (Staphylococcus aureus [1]) [µg/mL]	MIC (Bacillus subtilis [2]) [µg/mL]	diameter of the inhibition zone (DIZ) (Candida albicans [3])	MIC (Saccharomyces cerevisiae [4])	Activity (Pseudomonas aeruginosa)	Activity (Escherichia coli)	diameter of the inhibition zone (DIZ) (Saccharomyces cerevisiae [5])	MIC (Candida albicans [6])	zone of inhibition at 2000 µg/mL (Bacillus subtilis [7]) [mm]	zone of inhibition at 2000 µg/mL (Staphylococcus aureus [8]) [mm]	zone of inhibition at 2000 µg/mL (Candida albicans [3]) [mm]	MIC (Saccharomyces cerevisiae [4]; MTCC 170, 24 h) [µg/mL]	zone of inhibition at 2000 µg/mL (Saccharomyces cerevisiae [5]) [mm]	DIZ (Staphylococcus aureus [9])	MIC (Bacillus subtilis [10])	MIC (Staphylococcus aureus [11])	DIZ (Bacillus subtilis [12])
CCCc1nnc2n1N=C(c1ccccc1)C(OCC)S2 (stereo not given)	256 (≈ 847 µM)	128 (≈ 423 µM)	inactive	inactive	inactive	inactive	inactive	inactive	17.6	13.6							
COC1Sc2nncn2N=C1c1ccccc1 (stereo not given)	64 (≈ 260 µM)	64 (≈ 260 µM)			inactive	inactive		128 µg/mL (≈ 520 µM)	18.6	19.6	13.3	128 (≈ 520 µM)	13.6				
CCOC1Sc2nnc(CC)n2N=C1c1ccccc1 (stereo not given)	256 (≈ 888 µM)	64 (≈ 222 µM)	inactive	inactive	inactive	inactive	inactive	inactive	18.3	13.6							
CCCc1nnc2n1N=C(c1ccccc1)C(OC(C)C)S2 (stereo not given)	> 256	256 (≈ 809 µM)	inactive	inactive	inactive	inactive	inactive	inactive	14.6	12.3							
CCCOC1Sc2nnc(CC)n2N=C1c1ccc(Cl)cc1 (stereo not given)	> 256	128 (≈ 380 µM)	inactive		inactive	inactive		inactive	16.3	12.6		> 256	10.3				
CCOC1Sc2nnc(CC)n2N=C1c1ccc([N+](=O)[O-])cc1 (stereo not given)					inactive	inactive		128 µg/mL (≈ 384 µM)			13.3	64 (≈ 192 µM)	15.6	inactive	inactive	inactive	inactive
CC(C)OC1Sc2nncn2N=C1c1ccccc1 (stereo not given)	256 (≈ 933 µM)	256 (≈ 933 µM)	inactive		inactive	inactive		inactive	13.6	14.6		128 (≈ 467 µM)	13.3				
CCOC1Sc2nnc(CC)n2N=C1c1ccc(F)cc1 (stereo not given)					inactive	inactive		128 µg/mL (≈ 418 µM)			13	128 (≈ 418 µM)	13.6	inactive	inactive	inactive	inactive
CCCOC1Sc2nnc(-c3ccccc3)n2N=C1c1ccccc1 (stereo not given)	64 (≈ 183 µM)	128 (≈ 365 µM)	inactive		inactive	inactive		inactive	17.3	20.6		64 (≈ 183 µM)	17.3				
CCc1nnc2n1N=C(c1ccccc1)C(OC(C)C)S2 (stereo not given)	256 (≈ 847 µM)	> 256	inactive	inactive	inactive	inactive	inactive	inactive	12.3	13.6							
COC1Sc2nnc(-c3ccccc3)n2N=C1c1ccccc1 (stereo not given)	16 (≈ 49.6 µM)	64 (≈ 199 µM)	inactive		inactive	inactive		inactive	18	25.6		32 (≈ 99.3 µM)	18.6				
CCOC1Sc2nncn2N=C1c1ccccc1 (stereo not given)	128 (≈ 492 µM)	64 (≈ 246 µM)			inactive	inactive		inactive	20.3	16.3	13.6	128 (≈ 492 µM)	13.6				
